According to PMC6479981, “Design, Synthesis, and In Vitro Biological Activities of a Bio-Oxidizable Prodrug to Deliver Both ChEs and DYRK1A Inhibitors for AD Therapy” (Molecules, 2019):
Like-named read-outs stand apart in the source and are kept apart here.

What was measured:
hAChE [1] = target: T1, hAChE (Homo sapiens, UniProt P22303); test: biochemical; type: biochemical
T1 construct: purchased Aldrich
Protocol: (§1) Inhibitory capacity of compounds on hAChE and hBuChE biological activity was evaluated through the use of Ellman’s spectrometric method. Acetylthiocholine iodide (ATCI), […] (BTCI) and 5,5-dithiobis-(2-nitrobenzoic) acid (DTNB) were purchased from Sigma Aldrich. Lyophilized hAChE and hBuChE were purchased from Aldrich, and were diluted in phosphate buffer (pH 8) so as to give an enzyme solution with 0.25 units/mL enzyme activity. In the procedure, 100 μL of 0.3 mM DTNB dissolved in phosphate buffer pH 7.4 were added into the 96 well plate, followed by 50 μL of the tested compound solution and 50 μL of enzyme solution. After 5 min of preincubation, the reaction was then initiated by the injection of 50 μL of 10 mM ATCI or BTCI solution. […] All assays were performed in duplicate, and IC50 values were determined graphically from 8 points inhibition curves using the Prism® software.

hBuChE [2] = target: T2, hBuChE (Homo sapiens, UniProt P06276); test: biochemical; type: biochemical
T2 construct: purchased Aldrich
T2 sequence (P06276 29-602): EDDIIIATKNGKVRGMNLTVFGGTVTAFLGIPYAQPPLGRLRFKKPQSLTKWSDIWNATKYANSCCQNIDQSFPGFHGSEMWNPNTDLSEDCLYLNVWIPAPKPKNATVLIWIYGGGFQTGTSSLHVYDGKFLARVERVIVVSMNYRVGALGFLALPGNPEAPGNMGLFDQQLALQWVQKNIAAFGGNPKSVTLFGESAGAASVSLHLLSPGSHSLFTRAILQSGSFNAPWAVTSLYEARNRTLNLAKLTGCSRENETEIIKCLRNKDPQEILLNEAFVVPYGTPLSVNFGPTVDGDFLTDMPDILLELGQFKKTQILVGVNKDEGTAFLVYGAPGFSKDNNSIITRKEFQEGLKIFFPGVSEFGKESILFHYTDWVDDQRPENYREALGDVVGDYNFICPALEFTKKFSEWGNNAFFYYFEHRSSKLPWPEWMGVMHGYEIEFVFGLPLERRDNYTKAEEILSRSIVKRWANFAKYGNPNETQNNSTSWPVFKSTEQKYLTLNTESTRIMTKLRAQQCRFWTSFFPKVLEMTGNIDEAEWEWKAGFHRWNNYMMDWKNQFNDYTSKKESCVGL
Protocol: as §1

human recombinant DYRK1A = target: T3, human recombinant DYRK1A (Homo sapiens, UniProt Q13627); test: biochemical; conditions: for inhibition at 1 µM: read-out: DYRK1a Inhibition (%)
T3 construct: Eurofins Pharma Discovery (ran the assay)
Protocol: Evaluation of the effects of compounds on the activity of the human recombinant DYRK1A was made using the LANCE® detection method, and was quantified by measuring the phosphorylation of Ulight-[…]-amide (MBP). The assays were conducted by Eurofins Pharma Discovery in Bois l’Evêque, France. […] Next, 100 nM of Ulight-[…]-amide (MBP) and 10 µM ATP were added to initiate the reaction, and the mixture was incubated for 30 min at 25 °C. A blank without enzyme was also performed for control basal measurements. The experiment was stopped by addition of 13 mM EDTA, followed by the addition of the anti-phospho-MBP antibody labeled with europium chelate after 5 min. […] Outputs are expressed as a percentage of inhibition of the control DYRK1A activity.

hBuChE [3] = target: T2, hBuChE; test: Time-dependent (stopped time) kinetic study of hBuChE inhibition; type: biochemical
Protocol: (§2) To support the assumption of the pseudo-irreversible inhibition mechanism of both ChEs by compound 14, kinetic studies were also performed using stopped time assays at different concentrations of ligand 14. […] Using a nonlinear regression fitting analysis, the pseudo-first-order inhibition rate constant (kobs) for each concentration of 14 was obtained and the equilibrium constant (Kc) and the carbamoylation rate constant (k3) was determined by the reported method.
(§3) For the time-dependent experiments, assays were performed using a 96 well microplate reader to a final volume of 250 μL, a final enzyme concentration of 0.05 U·mL^−1 and an ATCI (or BTCI) and DNTB concentrations of 0.3 and 0.5 mM respectively in phosphate buffer (pH 8). At the starting time (t0), the inhibitor at various concentration (150 μL) was added to an equivalent volume of hAChE (or hBuChE). The mixture was then incubated at 37 °C and, at different time points, 50 μL aliquots were transferred to wells containing a solution of ATCI (or BTCI) and DTNB in phosphate buffer (200 μL) and the activity was determined by measuring the changes in absorbance at 412 nm every minute for 10 min. Blank experiments were also performed without inhibitor. The first order inhibition constant kobs was determined for all inhibitor concentrations using a nonlinear regression. Data were fitted with the equation, A = A0 exp(−kobs·t) + A∞ with A, A0, A∞ being ratios of the inhibited enzyme activity to the control activity at time t, 0, and ∞. Double reciprocal plots of kobs versus the inhibitor concentration were made to determine the equilibrium constant Kc and the carbamoylation rate constant k3, following the described method.

hAChE [4] = target: T1, hAChE; test: Time-dependent (stopped time) kinetic study of hAChE inhibition; type: biochemical
Protocol: as §2, §3

[5] = PAMPA-BBB permeability assay; type: in vitro ADME; conditions: pH 7.4, 4 h, room temperature
Protocol: Assays were performed at the Centre d’Etudes et de Recherche sur le Médicament de Normandie (CERMN) in Caen, France. These assays were realized according to the methodology developed by PION, by means of the Pampa-BBB Explorer™ system. This system allows the measurement of the crossing velocity of a compound from one compartment to another through an artificial membrane at pH = 7.4. The experiment was replicated 6 times in 4 h, with quantification by UV-spectra reading. The result is given in Pe [cm·s^−1], and an interpretation by comparison with standard compounds is proposed. The studied compounds were diluted at 20 mM in DMSO, then diluted at […] in Prisma HT Buffer pH 7.4 (pION). 200 µL of this solution was placed in the wells of the donor plate. 5 μL of BBB-1 Lipid was placed in the filters of the acceptor plate. 200 µL of Brain Sink Buffer was added in the wells of the acceptor plate. The sandwich was then assembled and incubated for 4 h at room temperature, without stirring. The sandwich was then separated and the UV-vis spectra of the donor and acceptor compartments were determined with the plate reader (Tecan infinite M200, Männedorf, Switzerland). Pe were calculated with the PAMPA Explorer software v.3.7 (pION Inc, Billerica, MA, USA). Standard compounds used were corticosterone and theophylline.

[6] = target: T4, peripheral binding site of eeAChE (Electrophorus electricus, UniProt O42275); test: Propidium iodide displacement (competition) assay
T4 construct: purchased Aldrich
T4 sequence (O42275 24-633): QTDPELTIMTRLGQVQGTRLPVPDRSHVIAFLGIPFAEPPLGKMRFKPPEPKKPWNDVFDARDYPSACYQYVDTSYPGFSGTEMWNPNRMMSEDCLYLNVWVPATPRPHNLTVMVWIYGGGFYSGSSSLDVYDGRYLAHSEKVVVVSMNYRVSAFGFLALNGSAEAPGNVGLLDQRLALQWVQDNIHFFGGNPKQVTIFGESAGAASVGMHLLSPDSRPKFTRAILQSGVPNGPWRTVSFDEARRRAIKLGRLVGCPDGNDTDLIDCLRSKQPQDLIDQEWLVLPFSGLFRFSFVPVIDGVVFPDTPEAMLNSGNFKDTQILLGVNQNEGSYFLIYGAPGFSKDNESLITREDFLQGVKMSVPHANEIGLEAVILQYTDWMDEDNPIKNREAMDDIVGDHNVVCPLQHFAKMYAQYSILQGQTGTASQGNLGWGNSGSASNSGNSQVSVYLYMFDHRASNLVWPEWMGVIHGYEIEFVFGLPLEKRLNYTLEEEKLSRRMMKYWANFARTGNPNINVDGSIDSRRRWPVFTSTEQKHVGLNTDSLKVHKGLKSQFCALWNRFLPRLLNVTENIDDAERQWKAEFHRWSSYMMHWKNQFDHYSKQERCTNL
Protocol: The assays were performed at the Centre d’Etudes et de Recherche sur le Médicament de Normandie (CERMN) in Caen, France. […] Fluorescence intensity was monitored using a microplate reader. […] Each assay was performed in triplicate.

[7] = mean value of duplicate, 5 min preincubation, read-out: IC50 hAChE
[8] = mean value of duplicate, 5 min preincubation, read-out: IC50 hBuChE
[9] = at 1 μM compound, 10 μM ATP concentration, mean value of duplicate

T1 sequence (P22303 32-614): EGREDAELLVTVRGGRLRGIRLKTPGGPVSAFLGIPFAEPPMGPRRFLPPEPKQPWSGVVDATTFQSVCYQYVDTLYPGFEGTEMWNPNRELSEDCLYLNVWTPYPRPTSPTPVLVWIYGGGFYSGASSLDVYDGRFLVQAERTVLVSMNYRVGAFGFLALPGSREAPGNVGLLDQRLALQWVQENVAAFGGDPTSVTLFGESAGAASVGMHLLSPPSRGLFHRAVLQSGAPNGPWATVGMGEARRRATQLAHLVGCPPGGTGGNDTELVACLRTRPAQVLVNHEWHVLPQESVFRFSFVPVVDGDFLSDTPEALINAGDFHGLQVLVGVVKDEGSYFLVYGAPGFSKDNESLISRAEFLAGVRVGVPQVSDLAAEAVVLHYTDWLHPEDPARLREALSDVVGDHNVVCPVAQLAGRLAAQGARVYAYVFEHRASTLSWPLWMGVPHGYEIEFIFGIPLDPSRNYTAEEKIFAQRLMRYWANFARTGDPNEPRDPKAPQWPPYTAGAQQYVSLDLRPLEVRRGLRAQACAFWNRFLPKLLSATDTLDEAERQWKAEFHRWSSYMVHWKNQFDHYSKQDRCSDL

Compound | IC50 (hAChE [1]; [7]) | IC50 (hBuChE [2]; [8]) | DYRK1a Inhibition (%) (human recombinant DYRK1A; [9]) | IC50 (hAChE [1]) | IC50 (hBuChE [2]) | inhibition at 1 µM (human recombinant DYRK1A) | further results
CCN1/C(=C/C(C)=O)Sc2ccc(OC(=O)OCCOCCNC(=O)c3cc4ccccc4[n+](C)c3)cc21.COS(=O)(=O)[O-] [compound 15, (Z)-3-((2-(2-((((3-Ethyl-2-(2-oxopropylidene)-2,3-dihydrobenzo[d]thiazol-5-yl)oxy)carbonyl)oxy)ethoxy)ethyl)carbamoyl)-1-methylquinolin-1-ium methyl sulfate] | > 10000 nM | 6400 ± 714 nM | 6% | – | – | – | inhibitory activity against hAChE (in words) (hAChE [1]): did not show any significant inhibitory activity; inhibitory activity against hBuChE (in words) (hBuChE [2]): did not show any significant inhibitory activity
CCN1/C(=C/C(C)=O)Sc2ccc(OC(=O)OCCOCCNC(=O)c3cc4c(OC(=O)N(C)C)cccc4[n+](C)c3)cc21.COS(=O)(=O)[O-] [compound 14, (Z)-5-((Dimethylcarbamoyl)oxy)-3-((2-(2-((((3-ethyl-2-(2-oxopropylidene)-2,3-dihydrobenzo[d]thiazol-5-yl)oxy)carbonyl)oxy)ethoxy)ethyl)carbamoyl)-1-methylquinolin-1-ium methyl sulfate] | 81.4 ± 0.4 nM | 482 ± 21 nM | 5% | – | – | – | carbamoylation rate constant k3 (hBuChE [3]; hBChE): 0.574 min⁻¹; Kd (hBuChE [3]; hBChE, 37 °C, double reciprocal plot of kobs vs inhibitor concentration, read-out: equilibrium constant Kc): 659 nM; second order rate constant Ki (k3/Kc), carbamylation efficacy (hBuChE [3]; hBuChE): 14500 M⁻¹ s⁻¹; carbamoylation rate constant k3 (hAChE [4]): 0.408 min⁻¹; second order rate constant Ki (k3/Kc), carbamylation efficacy (hAChE [4]): 29700 M⁻¹ s⁻¹; Kd (hAChE [4]; 37 °C, double reciprocal plot of kobs vs inhibitor concentration, read-out: equilibrium constant Kc): 230 nM; Pe (PAMPA BBB, passive diffusion) [5]: 0 ×10⁻⁶ cm/s; Propidium Iodide Displacement Inhibition (%) ([6]; compound 10^−5 M, eeAChE, propidium iodide 1 μM, mean value of triplicate): 26 ± 1%
CCN1/C(=C/C(C)=O)Sc2ccc(OC(=O)OCCOCCNC(=O)C3=CN(C)c4ccccc4C3)cc21 [compound 16, (Z)-3-Ethyl-2-(2-oxopropylidene)-2,3-dihydrobenzo[d]thiazol-5-yl (2-(2-(1-methyl-1,4-dihydroquinoline-3-carboxamido)ethoxy)ethyl) carbonate] | > 10000 nM | > 10000 nM | – | – | – | – | inhibition at 1 µM (human recombinant DYRK1A; [9]): 7%
CCN1/C(=C/C(C)=O)Sc2ccc(O)cc21 [Indy, reference compound] | > 10000 nM | > 10000 nM | – | – | – | – | –
CCN1/C(=C/C(C)=O)Sc2ccc(OC(=O)OCCOCCNC(=O)C3=CN(C)c4cccc(OC(=O)N(C)C)c4C3)cc21 [compound 4, (Z)-3-((2-(2-((((3-Ethyl-2-(2-oxopropylidene)-2,3-dihydrobenzo[d]thiazol-5-yl)oxy)carbonyl)oxy)ethoxy)ethyl)carbamoyl)-1-methyl-1,4-dihydroquinolin-5-yl dimethylcarbamate] | – | – | – | 1020 ± 72.1 nM | 961 ± 22 nM | 8% | Papp at 4 h ([5]; PAMPA, read-out: Pe (PAMPA BBB, passive diffusion)): 2.41 ×10⁻⁶ cm/s; inhibition at 10 µM ([6]; read-out: Propidium Iodide Displacement Inhibition (%)): 4 ± 2%
CN(C)C(=O)Oc1cccc2c1cc(C(=O)NCCO)c[n+]2C [2a, reference compound] | – | – | – | 37.1 ± 0.1 nM | 1440 ± 286 nM | 0% | –
